Assay results reported in patent US8420820B2, “Pyrrolopyridinylpyrimidin-2-ylamine derivatives” (Merck Patent GmbH, priority 2008, dated 2013).

Columns and labels:
[1] = target: T1, PDK1 (Homo sapiens, UniProt O15530); experiment: Test for the inhibition of PDK1 (flashplate, 33P-ATP); assay type: biochemical; conditions: His6-PDK1 3.4 nM, 4 μM ATP, 30° C., 60 min
T1 construct: His6 (N)
How it was run: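 His6-PDK1(1-50) at 3.4 nM with biotinylated peptide substrate (400 nM) and 4 μM ATP plus 33P-ATP, 60 min at 30° C. Incorporated radioactivity counted; blank from 100 nM staurosporin subtracted. Activity given as % of no-compound control; IC50 from dilution series.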

[2] = tested on: A2780 (ovary); experiment: Tumour cell proliferation/vitality assay (Alamar Blue); assay type: cell-based; conditions: Homo sapiens, 96 h, A2780 cells, 4 days of cultivation with test substance
Protocol: In the present experiment description, the inhibition of tumour cell proliferation/tumour cell vitality by active ingredients is described.
The cells are sown in a suitable cell density in microtitre plates (96-well format) and the test substances are added in the form of a concentration series. After four further days of cultivation in serum-containing medium, the tumour cell proliferation/tumour cell vitality can be determined by means of an Alamar Blue test system.
The cells are cultivated in medium. At intervals of several days, the cells are detached from the culture dishes with the aid of trypsin solution and sown in suitable dilution in fresh medium. The cells are cultivated at 37° Celsius and 10% CO2.
A defined number of cells (for example 2000 cells) per culture/well in a volume of 180 μl of culture medium are sown in microtitre plates (96 well cell-culture plates) using a multichannel pipette. The cells are subsequently cultivated in a CO2 incubator (37° C. and 10% CO2).
The test substances are dissolved, for example, in DMSO and subsequently employed in corresponding concentration (if desired in a dilution series) in the cell culture medium. The dilution steps can be adapted depending on the efficiency of the active ingredients and the desired spread of the concentrations. Cell culture medium is added to the test substances in corresponding concentrations. The addition of the test substances to the cells can take place on the same day as the sowing of the cells. To this end, in each case 20 μl of substance solution from the predilution plate are added to the cultures/wells. The cells are cultivated for a further 4 days at 37° Celsius and 10% CO2.
In each case, 20 μl of Alamar Blue reagent are added per well, and the microtitre plates are incubated, for example, for a further seven hours in a CO2 incubator (at 37° C. and 10% CO2). The plates are measured in a reader with a fluorescence filter at a wavelength of 540 nm. The plates can be shaken gently immediately before the measurement.
The absorbance value of the medium control (no cells and test substances used) is subtracted from all other absorbance values. The controls (cells without test substance) are set equal to 100 percent, and all other absorbance values are set in relation thereto (for example in % of control):
IC50 values (50% inhibition) are determined with the aid of statistics programs, such as, for example, RS1.

[3] = tested on: PDK1 kinase activity in PC3 cells (phospho-T308-PKB); experiment: Cellular testing of PDK1 kinase inhibitors in PC3 cells (Luminex, phospho-T308-PKB); assay type: cell-based; conditions: Homo sapiens, PC-3, 0.5 h, 30 min with test substance, serum-free, phospho-T308-PKB by Luminex, read-out: IC50 [PC3 P-PKB Thr308]
How it was run: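 Serum-starved PC3 cells treated 30 min with compound (7-point dilution); lysates captured on anti-total-PKB Luminex beads, with phospho-T308-PKB detected by antibody. Signals corrected by 10 μM staurosporine blank, expressed as percent of 0.3% DMSO control, giving IC50.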

T1 sequence (O15530 51-556): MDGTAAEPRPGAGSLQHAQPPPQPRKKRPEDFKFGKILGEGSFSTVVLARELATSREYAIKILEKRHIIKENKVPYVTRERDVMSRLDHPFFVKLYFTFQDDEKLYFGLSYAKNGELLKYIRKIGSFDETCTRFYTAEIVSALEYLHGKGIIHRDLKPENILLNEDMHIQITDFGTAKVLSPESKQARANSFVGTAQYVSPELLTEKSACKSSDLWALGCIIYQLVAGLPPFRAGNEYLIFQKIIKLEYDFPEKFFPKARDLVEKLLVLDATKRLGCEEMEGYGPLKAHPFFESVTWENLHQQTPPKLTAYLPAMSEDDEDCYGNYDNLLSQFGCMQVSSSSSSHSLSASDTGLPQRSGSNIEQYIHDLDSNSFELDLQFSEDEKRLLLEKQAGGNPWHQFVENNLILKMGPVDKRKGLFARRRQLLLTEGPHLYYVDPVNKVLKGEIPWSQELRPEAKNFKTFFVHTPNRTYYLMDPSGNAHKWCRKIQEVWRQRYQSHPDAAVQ

Structure (SMILES)	IC50 [1]	IC50 [2]	IC50 [3]
CCc1cc(-c2c[nH]c3ncc(-c4cnn(C5CCN(C)CC5)c4)cc23)nc(N)n1 [Compound A5, 4-ethyl-6-{5-[1-(1-methylpiperidin-4-yl)-1H-pyrazol-4-yl]-1H-pyrrolo[2,3-b]pyridin-3-yl}-pyrimidin-2-ylamine]	10 to 1000 nM	10 to 1000 nM	1000 to 10000 nM
CCc1cc(-c2c[nH]c3ncc(-c4cnn(CCN5CCCC5)c4)cc23)nc(N)n1 [Compound A7, 4-ethyl-6-{5-[1-(2-pyrrolidin-1-ylethyl)-1H-pyrazol-4-yl]-1H-pyrrolo[2,3-b]pyridin-3-yl}pyrimidin-2-ylamine]	10 to 1000 nM	10 to 1000 nM	10000 to 20000 nM
CC(C)n1cc(-c2cnc3[nH]cc(-c4cc([C@@](C)(O)c5ccccc5)nc(N)n4)c3c2)cn1 [Compound A124, (S)-1-{2-Amino-6-[5-(1-isopropyl-1H-pyrazol-4-yl)-1H-pyrrolo[2,3-b]pyridin-3-yl]pyrimidin-4-yl}-1-phenylethanol]	10 to 1000 nM	10 to 1000 nM	10 to 1000 nM
CCC[C@@H](O)c1cc(-c2c[nH]c3ncc(-c4cnn(C(C)C)c4)cc23)nc(N)n1 [Compound A91, (R)-1-{2-Amino-6-[5-(1-isopropyl-1H-pyrazol-4-yl)-1H-pyrrolo[2,3-b]pyridin-3-yl]pyrimidin-4-yl}butan-1-ol]	10 to 1000 nM	10 to 1000 nM	10 to 1000 nM
CC(C)n1cc(-c2cnc3[nH]cc(-c4cc(C(C)(O)c5ccccc5)nc(N)n4)c3c2)cn1 (stereo not drawn) [Compound A55, 1-{2-Amino-6-[5-(1-isopropyl-1H-pyrazol-4-yl)-1H-pyrrolo[2,3-b]pyridin-3-yl]-pyrimidin-4-yl}-1-phenylethanol]	10 to 1000 nM	10 to 1000 nM	10 to 1000 nM
CC(C)n1cc(-c2cnc3[nH]cc(-c4cc([C@](C)(O)c5ccccc5)nc(N)n4)c3c2)cn1 [Compound A123, (R)-1-{2-Amino-6-[5-(1-isopropyl-1H-pyrazol-4-yl)-1H-pyrrolo[2,3-b]pyridin-3-yl]pyrimidin-4-yl}-1-phenylethanol]	10 to 1000 nM	10 to 1000 nM	10 to 1000 nM
CCc1cc(-c2c[nH]c3ncc(-c4cnn(CCN5CCOCC5)c4)cc23)nc(N)n1 [Compound A8, 4-ethyl-6-{5-[1-(2-morpholin-4-ylethyl)-1H-pyrazol-4-yl]-1H-pyrrolo[2,3-b]pyridin-3-yl}pyrimidin-2-ylamine]	10 to 1000 nM	1000 to 10000 nM	1000 to 10000 nM
CC(C)C(O)c1cc(-c2c[nH]c3ncc(-c4cnn(C(C)C)c4)cc23)nc(N)n1 (stereo not drawn) [Compound A102, 1-{2-Amino-6-[5-(1-isopropyl-1H-pyrazol-4-yl)-1H-pyrrolo[2,3-b]pyridin-3-yl]-pyrimidin-4-yl}-2-methylpropan-1-ol]	10 to 1000 nM	1000 to 10000 nM	1000 to 10000 nM
CCc1cc(-c2c[nH]c3ncc(-c4cnn(CCCN(C)C)c4)cc23)nc(N)n1 [Compound A4, 4-{5-[1-(3-dimethylaminopropyl)-1H-pyrazol-4-yl]-1H-pyrrolo[2,3-b]pyridin-3-yl}-6-ethylpyrimidin-2-ylamine]	10 to 1000 nM	1000 to 10000 nM	1000 to 10000 nM
CCc1cc(-c2c[nH]c3ncc(-c4cnn(CCNC)c4)cc23)nc(N)n1 [Compound A3, 4-ethyl-6-{5-[1-(2-methylaminoethyl)-1H-pyrazol-4-yl]-1H-pyrrolo[2,3-b]pyridin-3-yl}pyrimidin-2-yl]	10 to 1000 nM	10 to 1000 nM	10000 to 20000 nM
CCc1cc(-c2c[nH]c3ncc(-c4cnn(C5CCNCC5)c4)cc23)nc(N)n1 [Compound A6, 4-ethyl-6-[5-(1-piperidin-4-yl-1H-pyrazol-4-yl)-1H-pyrrolo[2,3-b]pyridin-3-yl]pyrimidin-2-ylamine]	10 to 1000 nM	1000 to 10000 nM	10000 to 20000 nM
CCc1cc(-c2c[nH]c3ncc(-c4cnn(CC5CCCO5)c4)cc23)nc(N)n1 (stereo not drawn) [Compound A2, 4-ethyl-6-{5-[1-(tetrahydrofuran-2-ylmethyl)-1H-pyrazol-4-yl]-1H-pyrrolo[2,3-b]pyridin-3-yl}-pyrimidin-2-ylamine]	10 to 1000 nM	10 to 1000 nM	10000 to 20000 nM
CCC(O)(c1ccccc1)c1cc(-c2c[nH]c3ncc(-c4cnn(C(C)C)c4)cc23)nc(N)n1 (stereo not drawn) [Compound A59, 1-{2-amino-6-[5-(1-isopropyl-1H-pyrazol-4-yl)-1H-pyrrolo[2,3-b]pyridin-3-yl]pyrimidin-4-yl}-1-phenylpropan-1-ol]	10 to 1000 nM	10 to 1000 nM	10 to 1000 nM
CCC[C@H](O)c1cc(-c2c[nH]c3ncc(-c4cnn(C(C)C)c4)cc23)nc(N)n1 [Compound A90, (S)-1-{2-Amino-6-[5-(1-isopropyl-1H-pyrazol-4-yl)-1H-pyrrolo[2,3-b]pyridin-3-yl]pyrimidin-4-yl}butan-1-ol]	10 to 1000 nM	10 to 1000 nM	1000 to 10000 nM
